{
  "source": "patent US10501503B2",
  "about": "“Modified membrane permeability” (Cathay Biotech Inc., priority 2015, dated 2019)",
  "key": {"[1]": {"tested_on": "H. alvei", "assay": "Cadaverine inhibits gram-negative bacteria: lysine-to-cadaverine conversion after pre-incubation in cadaverine", "type": "cell-based, Hafnia alvei", "conditions": "3% cadaverine for 24 hours", "procedure": "We studied the affect of cadaverine on the gram-negative bacteria H. alvei. First, H. alvei was transformed with pCIB60 and grown for 24 hours in 50 mL LB medium with ampicillin (100 μg/mL) at 37° C. The following day, 50 mL of the seed culture was added to a 10 L jar fermenter containing […] of fermentation medium (20 g/L glucose, 30 g/L corn steep liquor, 10 g/L yeast extract, 5 g/L ammonium sulfate, 10 g/L MgSO4, 0.05 g/L FeSO4, 0.05 g/L MnSO4, 5 g/L CaCl2, 0.1 g/L ampicillin), and the fermentation proceeded for 18 hours. 10 g of fermentation broth was collected, centrifuged at 6000 rpm for 5 min at room temperature, and the biomass was recovered. 0.5 g of biomass was added to a 50 mM potassium phosphate buffer with either 0% or 3% cadaverine for 24 hours. After incubation, each sample was centrifuged at 6000 rpm for 5 min at room temperature, the biomass was recovered, and fresh potassium phosphate buffer with lysine-HCl and PLP to a final concentration of 200 g/L and 0.1 mM, respectively, was added. The initial pH of the reaction as adjusted to 5.0, and the reaction was allowed to proceed for 120 minutes at 37° C. […] The cadaverine concentration in each sample was quantified using NMR, and yield was calculated by dividing the molar amount of cadaverine produced by the molar amount of lysine added."}, "[2]": {"tested_on": "E. coli", "conditions": "Qian et al., Biotechnology and Bioengineering 108:93-103, 2010; cited from earlier work"}},
  "data": [
    {"smiles": "NCCCCCN", "note": "[cadaverine]", "values": [
      {"measurement": "Effect of cadaverine pre-incubation on the cells' ability to convert lysine to cadaverine", "setting": "[1]", "result": "significant decrease in conversion ability"},
      {"measurement": "Effect of cadaverine on growth of E. coli", "setting": "[2]", "result": "inhibits growth"}
    ]}
  ]
}
